Experimental data: patent US11136296B2, “Substituted N-arylethyl-2-arylquinoline-4-carboxamides and use thereof” (Bayer Aktiengesellschaft, priority 2017, dated 2021)
pIC50: −log10 of the molar value.

Target: FP receptor (Homo sapiens (Human), UniProt P43088)
Assay: In vitro test of inhibition of human FP receptor activity (PGF2α-induced calcium flux in FP-expressing CHEM1 cells)
Format: cell-based
Conditions: PGF2α-induced (2 nM) calcium flux in FP-expressing CHEM1 cells; some as mean values from multiple determinations
Excerpt: Table 1 below lists the IC50 values from this assay for individual working examples of the invention (some as mean values from multiple independent individual determinations): […]

Chain of FP receptor (P43088 whole entry): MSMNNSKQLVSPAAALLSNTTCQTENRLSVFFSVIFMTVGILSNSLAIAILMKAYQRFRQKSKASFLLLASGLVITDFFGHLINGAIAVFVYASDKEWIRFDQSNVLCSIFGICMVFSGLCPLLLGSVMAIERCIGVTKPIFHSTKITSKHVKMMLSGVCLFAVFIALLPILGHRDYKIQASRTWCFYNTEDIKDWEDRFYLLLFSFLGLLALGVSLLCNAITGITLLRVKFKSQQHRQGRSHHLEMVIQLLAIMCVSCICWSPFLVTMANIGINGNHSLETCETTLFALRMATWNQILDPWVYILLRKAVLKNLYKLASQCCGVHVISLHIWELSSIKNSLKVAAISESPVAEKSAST

Structure (SMILES)	pIC50
Cc1cccc(C(CNC(=O)c2c(C)c(-c3ccccc3)nc3ccc(Br)cc23)CC(=O)O)c1 (single isomer, unassigned) [Example 95, 4-{[(6-Bromo-3-methyl-2-phenylquinolin-4-yl)carbonyl]amino}-3-(3-methylphenyl)butanoic Acid]	7.08
Cc1c(-c2ccccc2)nc2ccc(Br)cc2c1C(=O)NCC(c1ccccc1Cl)C(C)(C)C(=O)O (single isomer, unassigned) [Example 112, 4-{[(6-Bromo-3-methyl-2-phenylquinolin-4-yl)carbonyl]amino}-3-(2-chlorophenyl)-2,2-dimethylbutanoic Acid]	7.04
Cc1c(-c2ccccc2)nc2ccc(Br)cc2c1C(=O)NCC(c1ccccc1Cl)S(=O)(=O)CC(=O)O (single isomer, unassigned) [Example 199, {[2-{[(6-Bromo-3-methyl-2-phenylquinolin-4-yl)carbonyl]amino}-1-(2-chlorophenyl)ethyl]sulfonyl}acetic Acid]	7.60
Cc1c(-c2ccccc2)nc2ccc(Br)cc2c1C(=O)NCC(CCC(=O)O)c1cc(F)cc(F)c1F (single isomer, unassigned) [Example 232, 5-{[(6-Bromo-3-methyl-2-phenylquinolin-4-yl)carbonyl]amino}-4-(2,3,5-trifluorophenyl)pentanoic Acid]	8.06
Cc1c(-c2ccccc2)nc2ccc(Br)cc2c1C(=O)NCC(C(=O)O)c1ccccc1 (single isomer, unassigned; (+)) [Example 3, (+)-3-{[(6-Bromo-3-methyl-2-phenylquinolin-4-yl)carbonyl]amino}-2-phenylpropanoic Acid]	6.57
Cc1c(-c2ccccc2)nc2ccc(Br)cc2c1C(=O)NCC(C)(C(=O)O)c1ccccc1Cl (single isomer, unassigned; (+)) [Example 37, (+)-3-{[(6-Bromo-3-methyl-2-phenylquinolin-4-yl)carbonyl]amino}-2-(2-chlorophenyl)-2-methylpropanoic Acid]	6.80
Cc1c(-c2ccccc2)nc2ccc(Br)cc2c1C(=O)NCC(C)(C(=O)O)c1cccc(C(F)(F)F)c1 (single isomer, unassigned; (+)) [Example 43, (+)-3-{[(6-Bromo-3-methyl-2-phenylquinolin-4-yl)carbonyl]amino}-2-methyl-2-[3-(trifluoromethyl)phenyl]propanoic Acid]	6.85
COc1cccc(C(CNC(=O)c2c(C)c(-c3ccccc3)nc3ccc(Br)cc23)C(=O)O)c1 (single isomer, unassigned; (+)) [Example 46, (+)-3-{[(6-Bromo-3-methyl-2-phenylquinolin-4-yl)carbonyl]amino}-2-(3-methoxyphenyl)propanoic Acid]	6.64
Cc1c(-c2ccccc2)nc2ccc(Br)cc2c1C(=O)NCC(C(=O)O)c1cccc(Cl)c1 (single isomer, unassigned; (+)) [Example 49, (+)-3-{[(6-Bromo-3-methyl-2-phenylquinolin-4-yl)carbonyl]amino}-2-(3-chlorophenyl)propanoic Acid]	7.16
Cc1cccc(C(CNC(=O)c2c(C)c(-c3ccccc3)nc3ccc(Br)cc23)C(=O)O)c1 (single isomer, unassigned; (+)) [Example 52, (+)-3-{[(6-Bromo-3-methyl-2-phenylquinolin-4-yl)carbonyl]amino}-2-(3-methylphenyl)propanoic Acid]	7.15
COc1ccccc1C(O)(CNC(=O)c1c(C)c(-c2ccccc2)nc2ccc(Br)cc12)C(=O)O (single isomer, unassigned; (+)) [Example 55, (+)-3-{[(6-Bromo-3-methyl-2-phenylquinolin-4-yl)carbonyl]amino}-2-hydroxy-2-(2-methoxyphenyl)propanoic Acid]	7.11
COc1cccc(F)c1C(CNC(=O)c1c(C)c(-c2ccccc2)nc2ccc(Br)cc12)C(=O)O (single isomer, unassigned; (+)) [Example 58, (+)-3-{[(6-Bromo-3-methyl-2-phenylquinolin-4-yl)carbonyl]amino}-2-(2-fluoro-6-methoxyphenyl)propanoic Acid]	8.01
Cc1c(-c2ccccc2)nc2ccc(Br)cc2c1C(=O)NCC(C)(C(=O)O)c1c(F)cccc1Cl (single isomer, unassigned; (+)) [Example 61, (+)-3-{[(6-Bromo-3-methyl-2-phenylquinolin-4-yl)carbonyl]amino}-2-(2-chloro-6-fluorophenyl)-2-methylpropanoic Acid]	6.64
Cc1ccccc1C(CNC(=O)c1c(C)c(-c2ccccc2)nc2ccc(Br)cc12)CC(=O)O (single isomer, unassigned; (+)) [Example 77, (+)-4-{[(6-Bromo-3-methyl-2-phenylquinolin-4-yl)carbonyl]amino}-3-(2-methylphenyl)butanoic Acid]	7.07
Cc1c(-c2ccccc2)nc2ccc(Br)cc2c1C(=O)NCC(C)(CC(=O)O)c1ncccc1Cl (single isomer, unassigned; (+)) [Example 86, (+)-4-{[(6-Bromo-3-methyl-2-phenylquinolin-4-yl)carbonyl]amino}-3-(3-chloropyridin-2-yl)-3-methylbutanoic Acid]	6.62

The remaining compounds from weak to strong by pIC50, led by results:

pIC50	Structure (SMILES)
6.34	Cc1ccc(C(CNC(=O)c2c(C)c(-c3ccccc3)nc3ccc(Br)cc23)CC(=O)O)cc1 (single isomer, unassigned; (+)) [Example 91, (+)-4-{[(6-Bromo-3-methyl-2-phenylquinolin-4-yl)carbonyl]amino}-3-(4-methylphenyl)butanoic Acid]
6.40	Cc1c(-c2ccccc2)nc2ccc(Br)cc2c1C(=O)NCC(c1ccccc1Cl)S(=O)(=O)CC(=O)O (single isomer, unassigned) [Example 198, (+/−)-{[2-{[(6-Bromo-3-methyl-2-phenylquinolin-4-yl)carbonyl]amino}-1-(2-chlorophenyl)ethyl]sulfonyl}acetic Acid]
6.43	Cc1c(-c2ccccc2)nc2ccc(Br)cc2c1C(=O)NCC(CC(=O)O)c1ccc(Cl)cc1 (single isomer, unassigned; (+)) [Example 67, (+)-4-{[(6-Bromo-3-methyl-2-phenylquinolin-4-yl)carbonyl]amino}-3-(4-chlorophenyl)butanoic Acid]
6.47	Cc1c(-c2ccccc2)nc2ccc(Br)cc2c1C(=O)NCC(C)(C(=O)O)c1ccccc1F (single isomer, unassigned; (+)) [Example 30, (+)-3-{[(6-Bromo-3-methyl-2-phenylquinolin-4-yl)carbonyl]amino}-2-(2-fluorophenyl)-2-methylpropanoic Acid]
6.66	Cc1c(-c2ccccc2)nc2ccc(Br)cc2c1C(=O)NCC(CC(=O)O)c1ccccc1 (single isomer, unassigned; (+)) [Example 65, (+)-4-{[(6-Bromo-3-methyl-2-phenylquinolin-4-yl)carbonyl]amino}-3-phenylbutanoic Acid]
6.72	Cc1c(-c2ccccc2)nc2ccc(Br)cc2c1C(=O)NCC(C)(C(=O)O)c1ccccc1 (single isomer, unassigned; (+)) [Example 15, (+)-3-{[(6-Bromo-3-methyl-2-phenylquinolin-4-yl)carbonyl]amino}-2-methyl-2-phenylpropanoic Acid]
6.72	Cc1c(-c2ccccc2)nc2ccc(Br)cc2c1C(=O)NCC(C)(C(=O)O)c1c(F)cccc1F (single isomer, unassigned; (+)) [Example 33, (+)-3-{[(6-Bromo-3-methyl-2-phenylquinolin-4-yl)carbonyl]amino}-2-(2,6-difluorophenyl)-2-methylpropanoic Acid]
6.92	CCC(CNC(=O)c1c(C)c(-c2ccccc2)nc2ccc(Br)cc12)(C(=O)O)c1ccccc1 (single isomer, unassigned; (+)) [Example 18, (+)-2-({[(6-Bromo-3-methyl-2-phenylquinolin-4-yl)carbonyl]amino}methyl)-2-phenylbutanoic Acid]
6.92	COc1ccccc1C(C)(CNC(=O)c1c(C)c(-c2ccccc2)nc2ccc(Br)cc12)C(=O)O (single isomer, unassigned; (+)) [Example 60, (+)-3-{[(6-Bromo-3-methyl-2-phenylquinolin-4-yl)carbonyl]amino}-2-(2-methoxyphenyl)-2-methylpropanoic Acid]
7.01	Cc1c(-c2ccccc2)nc2ccc(Br)cc2c1C(=O)NCC(O)(C(=O)O)c1ccccc1 (single isomer, unassigned; (+)) [Example 20, (+)-3-{[(6-Bromo-3-methyl-2-phenylquinolin-4-yl)carbonyl]amino}-2-hydroxy-2-phenylpropanoic Acid]
7.21	Cc1c(-c2ccccc2)nc2ccc(Br)cc2c1C(=O)NCC(c1ccccc1Cl)C(C)(C)C(=O)O (single isomer, unassigned) [Example 113, 4-{[(6-Bromo-3-methyl-2-phenylquinolin-4-yl)carbonyl]amino}-3-(2-chlorophenyl)-2,2-dimethylbutanoic Acid]
7.47	Cc1c(-c2ccccc2)nc2ccc(Br)cc2c1C(=O)NCC(F)(C(=O)O)c1ccccc1 (single isomer, unassigned; (+)) [Example 40, (+)-3-{[(6-Bromo-3-methyl-2-phenylquinolin-4-yl)carbonyl]amino}-2-fluoro-2-phenylpropanoic Acid]
7.57	Cc1c(-c2ccccc2)nc2ccc(Br)cc2c1C(=O)NCC(CC(=O)O)c1c(F)cccc1Cl (single isomer, unassigned; (+)) [Example 89, (+)-4-{[(6-Bromo-3-methyl-2-phenylquinolin-4-yl)carbonyl]amino}-3-(2-chloro-6-fluorophenyl)butanoic Acid]
7.60	Cc1c(-c2ccccc2)nc2ccc(Br)cc2c1C(=O)NCC(CCC(=O)O)c1cc(F)cc(F)c1F (single isomer, unassigned) [Example 233, 5-{[(6-Bromo-3-methyl-2-phenylquinolin-4-yl)carbonyl]amino}-4-(2,3,5-trifluorophenyl)pentanoic Acid]
8.14	COc1ccccc1C(CNC(=O)c1c(C)c(-c2ccccc2)nc2ccc(Br)cc12)C(=O)O (single isomer, unassigned; (+)) [Example 9, (+)-3-{[(6-Bromo-3-methyl-2-phenylquinolin-4-yl)carbonyl]amino}-2-(2-methoxyphenyl)propanoic Acid]
